Assay results from patent US20250320203A1, “4-(3H-PYRAZOLO[4,3-F]QUINOLIN-7-YL)-N-(2-(DIMETHYLAMINO)ETHYL)BENZAMIDE- OR HYDROXAMIC ACID COMPOUNDS, COMPOSITIONS, AND METHODS OF USE” (Purdue Research Foundation, priority 2022, published 2025).

Legend:
[1] = target: T1, FLT3 (Homo sapiens, UniProt P36888); assay: ADP Glo Kinase Assay, FLT3, 50 nM inhibitor; format: biochemical; conditions: 50 nM inhibitor conc.; means of triplicates; read-out: Percent Inhibition (%) FLT3
T1 sequence (P36888 27-993): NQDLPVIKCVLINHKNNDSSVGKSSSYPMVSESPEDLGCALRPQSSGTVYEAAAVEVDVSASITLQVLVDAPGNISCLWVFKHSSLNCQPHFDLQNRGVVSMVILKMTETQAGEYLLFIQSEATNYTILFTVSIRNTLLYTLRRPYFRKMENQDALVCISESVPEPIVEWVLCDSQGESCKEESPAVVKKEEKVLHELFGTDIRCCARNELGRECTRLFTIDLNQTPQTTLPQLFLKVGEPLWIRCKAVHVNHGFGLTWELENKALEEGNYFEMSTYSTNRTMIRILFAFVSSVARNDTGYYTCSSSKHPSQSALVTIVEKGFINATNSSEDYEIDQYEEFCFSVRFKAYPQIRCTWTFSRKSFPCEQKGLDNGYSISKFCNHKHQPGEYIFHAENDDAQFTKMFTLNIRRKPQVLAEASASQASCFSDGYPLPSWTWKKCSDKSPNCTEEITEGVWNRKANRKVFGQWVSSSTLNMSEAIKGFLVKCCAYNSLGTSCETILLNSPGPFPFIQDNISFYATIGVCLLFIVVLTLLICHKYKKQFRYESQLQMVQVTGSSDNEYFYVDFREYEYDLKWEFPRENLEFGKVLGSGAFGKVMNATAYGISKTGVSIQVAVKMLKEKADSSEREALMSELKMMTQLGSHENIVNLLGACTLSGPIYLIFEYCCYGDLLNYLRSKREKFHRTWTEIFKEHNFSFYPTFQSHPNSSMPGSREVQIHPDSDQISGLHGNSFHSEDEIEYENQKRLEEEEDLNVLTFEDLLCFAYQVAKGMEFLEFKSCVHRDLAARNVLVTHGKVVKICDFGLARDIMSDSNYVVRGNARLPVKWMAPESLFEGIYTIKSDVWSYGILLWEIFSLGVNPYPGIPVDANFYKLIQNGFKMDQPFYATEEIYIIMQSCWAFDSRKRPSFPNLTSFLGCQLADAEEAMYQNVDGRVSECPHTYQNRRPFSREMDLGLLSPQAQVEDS
Method: (§1) With the amide kinase inhibitor library established, kinase inhibition and AML cell line (Molm-14, which harbors FLT3-ITD) growth inhibition were analyzed (Table 1). More specifically, Haspin and FLT3 inhibition were evaluated in-house via ADP Glo Kinase Assay (Promega, Madison, WI). […] Values reported are means of triplicates.
(§2) Briefly, the ADP-Glo Kinase Assay Kit was used to determine inhibition of haspin. Kinase Buffer (SignalChem Cat #K01-09; 25 mM MOPS, pH 7.2, 12.5 mM β-glycerol-phosphate, 25 mM MgCl2, 2 mM EDTA) was supplemented with dithiothreitol (DTT) (0.2 mM) and bovine serum albumin (BSA) (40 μg/mL) immediately prior to use. Reaction volumes of 5 μL containing 9 ng/μL kinase, 10 μM ATP, 50 nM inhibitor, and the appropriate peptide substrate (20 μM) were incubated for 3 hours, and then quenched with an equal volume (5 μL) of GLO reagent. After 40 minutes, 10 μL DET reagent was added and incubated for 1 hour before visualization on a Cytation™ 5 Cell Imaging Multi-Mode Reader (BioTek).

[2] = system: Molm-14 cells (FLT3-ITD); assay: AML cell line growth inhibition (CellTiter-Blue), 50 nM; format: cell-based; conditions: Homo sapiens, 50 nM inhibitor conc., means of triplicates, read-out: Percent Inhibition (%) Molm-14 growth
Method: as §1
More specifically, cells were cultured to confluence in RPMI medium supplemented with 10% fetal bovine serum and 1× Penicillin-Streptomycin (Gibco™). Cells were plated at 5,000 cells/well in 96 well plates. After 24-hour incubation at 37° C. in a 5% CO2 incubator, compounds diluted in the same media were added to the indicated final concentration and allowed to incubate at 37° C. in a 5% CO2 incubator for 72 hours. Viability was determined using CellTiter-Blue® Cell Viability Assay (Promega, Madison, WI) with absorbance readings at 570 nm performed on a Cytation™ 5 Cell Imaging Multi-Mode Reader (BioTek) 3 hours after addition. Appropriate vehicle and cell-free controls were included. GI50 readings were confirmed by two scientists on two separate days.

[3] = target: T2, haspin (Homo sapiens, UniProt Q8TF76); assay: ADP Glo Kinase Assay, haspin, 50 nM inhibitor; format: biochemical; conditions: 50 nM inhibitor conc.; means of triplicates; read-out: Percent Inhibition (%) Haspin
T2 sequence (Q8TF76 1-798): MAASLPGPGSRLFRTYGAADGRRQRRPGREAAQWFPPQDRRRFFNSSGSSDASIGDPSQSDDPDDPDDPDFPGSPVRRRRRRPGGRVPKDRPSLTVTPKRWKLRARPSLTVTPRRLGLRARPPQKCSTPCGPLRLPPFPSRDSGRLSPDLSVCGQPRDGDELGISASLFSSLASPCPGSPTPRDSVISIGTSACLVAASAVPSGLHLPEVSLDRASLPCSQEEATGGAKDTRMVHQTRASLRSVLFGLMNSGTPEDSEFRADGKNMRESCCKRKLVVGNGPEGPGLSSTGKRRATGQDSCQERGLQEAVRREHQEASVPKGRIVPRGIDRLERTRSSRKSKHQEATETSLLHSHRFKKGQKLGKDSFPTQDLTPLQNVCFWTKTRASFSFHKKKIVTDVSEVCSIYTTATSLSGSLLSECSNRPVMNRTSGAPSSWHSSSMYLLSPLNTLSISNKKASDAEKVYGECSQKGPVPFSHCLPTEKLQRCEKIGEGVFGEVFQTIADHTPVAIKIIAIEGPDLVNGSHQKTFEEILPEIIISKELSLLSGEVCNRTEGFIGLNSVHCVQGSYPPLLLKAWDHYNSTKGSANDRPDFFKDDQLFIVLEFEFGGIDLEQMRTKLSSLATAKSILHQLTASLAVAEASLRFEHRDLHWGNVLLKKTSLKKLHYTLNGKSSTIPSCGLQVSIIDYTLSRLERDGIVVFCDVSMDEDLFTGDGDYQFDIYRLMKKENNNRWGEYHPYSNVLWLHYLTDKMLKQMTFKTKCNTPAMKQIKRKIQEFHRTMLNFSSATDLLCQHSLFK
Method: as §1, §2

[4] = target: CDK12/CyclinK (Homo sapiens, UniProt Q9NYV4); assay: CDK12/CyclinK inhibition (IC50); format: biochemical
[5] = target: CDK2 (Homo sapiens, UniProt P24941); assay: CDK2 inhibition (IC50); format: biochemical

Sequence of CDK12/CyclinK (Q9NYV4 whole entry): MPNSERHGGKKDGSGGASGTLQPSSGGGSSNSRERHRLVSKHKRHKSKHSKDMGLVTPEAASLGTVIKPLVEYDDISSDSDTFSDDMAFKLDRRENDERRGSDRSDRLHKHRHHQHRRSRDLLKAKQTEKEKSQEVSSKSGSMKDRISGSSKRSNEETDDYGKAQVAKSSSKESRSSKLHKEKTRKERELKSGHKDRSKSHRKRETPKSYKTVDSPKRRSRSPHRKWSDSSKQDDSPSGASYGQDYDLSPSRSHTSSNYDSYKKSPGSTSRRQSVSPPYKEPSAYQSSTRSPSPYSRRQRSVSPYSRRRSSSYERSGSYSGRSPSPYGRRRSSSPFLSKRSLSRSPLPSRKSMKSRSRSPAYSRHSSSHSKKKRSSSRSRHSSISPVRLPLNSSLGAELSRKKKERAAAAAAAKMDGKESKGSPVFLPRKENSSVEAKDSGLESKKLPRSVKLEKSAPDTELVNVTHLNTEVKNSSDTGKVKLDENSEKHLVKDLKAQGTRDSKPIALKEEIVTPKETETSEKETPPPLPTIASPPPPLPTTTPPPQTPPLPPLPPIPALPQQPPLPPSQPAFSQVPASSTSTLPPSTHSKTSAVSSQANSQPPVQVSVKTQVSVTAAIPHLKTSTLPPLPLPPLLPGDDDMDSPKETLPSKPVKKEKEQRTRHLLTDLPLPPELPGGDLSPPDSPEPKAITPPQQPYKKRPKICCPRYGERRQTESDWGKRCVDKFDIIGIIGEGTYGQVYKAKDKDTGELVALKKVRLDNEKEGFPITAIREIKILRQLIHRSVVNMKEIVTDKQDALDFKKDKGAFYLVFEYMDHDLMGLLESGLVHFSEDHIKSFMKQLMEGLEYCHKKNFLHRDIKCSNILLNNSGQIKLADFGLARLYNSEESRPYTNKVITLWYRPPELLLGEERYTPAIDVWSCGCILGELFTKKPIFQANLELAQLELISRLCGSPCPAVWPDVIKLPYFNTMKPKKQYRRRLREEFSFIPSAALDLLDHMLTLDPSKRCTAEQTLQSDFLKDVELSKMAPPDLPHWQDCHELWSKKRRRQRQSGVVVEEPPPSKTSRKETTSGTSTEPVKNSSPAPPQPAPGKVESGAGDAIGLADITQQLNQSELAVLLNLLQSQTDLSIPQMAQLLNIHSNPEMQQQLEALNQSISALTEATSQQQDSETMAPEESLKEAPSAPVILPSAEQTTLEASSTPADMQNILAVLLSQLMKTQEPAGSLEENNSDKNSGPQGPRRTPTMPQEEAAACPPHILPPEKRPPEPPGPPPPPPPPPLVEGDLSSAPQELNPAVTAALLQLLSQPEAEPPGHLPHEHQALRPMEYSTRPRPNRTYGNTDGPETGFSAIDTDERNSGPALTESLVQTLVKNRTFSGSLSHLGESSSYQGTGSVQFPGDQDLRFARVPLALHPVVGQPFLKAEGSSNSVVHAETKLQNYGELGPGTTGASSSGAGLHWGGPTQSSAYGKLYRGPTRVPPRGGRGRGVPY
Sequence of CDK12/CyclinK (O75909 whole entry partner): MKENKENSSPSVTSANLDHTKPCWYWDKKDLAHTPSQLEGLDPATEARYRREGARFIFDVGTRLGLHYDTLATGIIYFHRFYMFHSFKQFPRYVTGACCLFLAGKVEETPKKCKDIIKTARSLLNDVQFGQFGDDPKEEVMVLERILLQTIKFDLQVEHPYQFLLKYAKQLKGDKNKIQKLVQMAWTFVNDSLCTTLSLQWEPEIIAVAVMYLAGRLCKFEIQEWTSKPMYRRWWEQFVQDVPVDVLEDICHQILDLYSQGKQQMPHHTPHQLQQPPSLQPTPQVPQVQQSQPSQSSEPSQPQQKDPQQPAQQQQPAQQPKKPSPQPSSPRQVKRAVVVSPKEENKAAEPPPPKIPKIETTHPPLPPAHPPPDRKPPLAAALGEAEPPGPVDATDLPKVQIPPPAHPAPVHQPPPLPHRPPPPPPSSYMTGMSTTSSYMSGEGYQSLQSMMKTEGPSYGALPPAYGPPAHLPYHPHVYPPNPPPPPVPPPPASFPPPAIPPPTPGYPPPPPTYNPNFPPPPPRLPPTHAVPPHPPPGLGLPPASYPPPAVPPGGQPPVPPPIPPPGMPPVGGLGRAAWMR

| SMILES | inhibition at 0.05 µM [1] [%] | inhibition at 0.05 µM [3] [%] | IC50 [4] [µM] | IC50 [5] [µM] | inhibition at 0.05 µM [2] [%] |
| --- | --- | --- | --- | --- | --- |
| O=C(NCc1c[nH]cn1)c1ccc(-c2nc3ccc4[nH]ncc4c3c3c2CCCC3)cc1 [Compound 4, N-((1H-imidazol-4-yl)methyl)-4-(8,9,10,11-tetrahydro-3H-pyrazolo[4,3-a]phenanthridin-7-yl)benzamide] | 49 | 54 | – | – | 67 |
| O=C(NCCn1ccnc1)c1ccc(-c2nc3ccc4[nH]ncc4c3c3c2CCCC3)cc1 [Compound 5, N-(2-(1H-imidazol-1-yl)ethyl)-4-(8,9,10,11-tetrahydro-3H-pyrazolo[4,3-a]phenanthridin-7-yl)benzamide] | 31 | 33 | – | – | 42 |
| O=C(NCc1ncc[nH]1)c1ccc(-c2nc3ccc4[nH]ncc4c3c3c2CCCC3)cc1 [Compound 6, N-((1HI-imidazol-2-yl)methyl)-4-(8,9,10,11-tetrahydro-3H-pyrazolo[4,3-a]phenanthridin-7-yl)benzamide] | 76 | 77 | – | – | 84 |
| Cn1ccnc1CNC(=O)c1ccc(-c2nc3ccc4[nH]ncc4c3c3c2CCCC3)cc1 [Compound 7, N-((1-methyl-1H-imidazol-2-yl)methyl)-4-(8,9,10,11-tetrahydro-3H-pyrazolo[4,3-a]phenanthridin-7-yl)benzamide] | 14 | 26 | – | – | 21 |
| O=C(NCc1ncn[nH]1)c1ccc(-c2nc3ccc4[nH]ncc4c3c3c2CCCC3)cc1 [Compound 8, N-((4H-1,2,4-triazol-3-yl)methyl)-4-(8,9,10,11-tetrahydro-3H-pyrazolo[4,3-a]phenanthridin-7-yl)benzamide] | 49 | 57 | – | – | 48 |
| O=C(NCc1ncc[nH]1)c1ccc(-c2nc3ccc4[nH]ncc4c3c3c2CCCC3)c(F)c1 [Compound 9, N-((1H-imidazol-2-yl)methyl)-3-fluoro-4-(8,9,10,11-tetrahydro-3H-pyrazolo[4,3-a]phenanthridin-7-yl)benzamide] | 88 | 53 | – | – | 87 |
| O=C(NCc1nnn[nH]1)c1ccc(-c2nc3ccc4[nH]ncc4c3c3c2CCCC3)cc1 [Compound 10, N-((1H-tetrazol-5-yl)methyl)-4-(8,9,10,11-tetrahydro-3H-pyrazolo[4,3-a]phenanthridin-7-yl)benzamide] | 51 | 57 | – | – | 50 |
| O=C(NCc1ncc[nH]1)c1ccc(-c2nc3ccc4[nH]ncc4c3c3c2CCCC3)cc1F [Compound 11, N-((1H-imidazol-2-yl)methyl)-2-fluoro-4-(8,9,10,11-tetrahydro-3H-pyrazolo[4,3-a]phenanthridin-7-yl)benzamide] | 85 | 76 | – | – | 80 |
| O=C(NCc1cc[nH]c1)c1ccc(-c2nc3ccc4[nH]ncc4c3c3c2CCCC3)cc1 [Compound 12, N-((1H-pyrrol-3-yl)methyl)-4-(8,9,10,11-tetrahydro-3H-pyrazolo[4,3-a]phenanthridin-7-yl)benzamide] | 46 | 41 | – | – | 39 |
| O=C(NCc1nccs1)c1ccc(-c2nc3ccc4[nH]ncc4c3c3c2CCCC3)cc1 [Compound 13, 4-(8,9,10,11-tetrahydro-3HI-pyrazolo[4,3-a]phenanthridin-7-yl)-N-(thiazol-2-ylmethyl)benzamide] | 53 | 68 | – | – | 55 |
| Cc1c[nH]c(CNC(=O)c2ccc(-c3nc4ccc5[nH]ncc5c4c4c3CCCC4)cc2)n1 [Compound 14, N-((4-methyl-1H-imidazol-2-yl)methyl)-4-(8,9,10,11-tetrahydro-3H-pyrazolo[4,3-a]phenanthridin-7-yl)benzamide] | 94 | 97 | – | – | – |
| O=C(NCCc1ncc[nH]1)c1ccc(-c2nc3ccc4[nH]ncc4c3c3c2CCCC3)cc1 [Compound 15, N-(2-(1H-imidazol-2-yl)ethyl)-4-(8,9,10,11-tetrahydro-3H-pyrazolo[4,3-a]phenanthridin-7-yl)benzamide] | 71 | 78 | – | – | 73 |

Further lines, with some results ahead:

| inhibition at 0.05 µM [1] [%] | inhibition at 0.05 µM [3] [%] | IC50 [4] [µM] | IC50 [5] [µM] | SMILES | inhibition at 0.05 µM [2] [%] |
| --- | --- | --- | --- | --- | --- |
| – | – | 0.009 | 0.004 | O=C(NO)c1ccc(-c2nc3ccc4[nH]ncc4c3c3c2CCCC3)cc1 [Compound HSD1993, N-hydroxy-4-(8,9,10,11-tetrahydro-3H-pyrazolo[4,3-a]phenanthridin-7-yl)benzamide] | – |
| – | – | 0.027 | 0.007 | CN(C)CCNC(=O)c1ccc(-c2nc3ccc4[nH]ncc4c3c3c2CCCC3)cc1 [Compound HSH2177, N-(2-(dimethylamino)ethyl)-4-(8,9,10,11-tetrahydro-3H-pyrazolo[4,3-a]phenanthridin-7-yl)benzamide] | – |
| 81 | 39 | – | – | FC(F)(F)c1n[nH]cc1-c1nc2ccc3[nH]ncc3c2c2c1CCCC2 [HSD1169, reference compound] | 90 |
| – | – | – | 0.185 | NC(=O)c1ccc(-c2nc3ccc4[nH]ncc4c3c3c2CCCC3)cc1 [HSD1217, reference compound] | – |
| – | – | 0.06 | – | CN(C)C/C=C/C(=O)Nc1ccc(C(=O)N2CCC[C@@H](Nc3ncc(Cl)c(-c4c[nH]c5ccccc45)n3)C2)cc1 [THZ531, reference compound] | – |
